# Values of other authors, collected in patent publication US6423864B1, “Purification of N-[N-(3,3-dimethylbutyl)-L-α-aspartyl]-L-phenylalanine 1-methyl ester via crystallization” (The NutraSweet Company, priority 1998, dated 2002).
# Details: relative to sucrose; background statement
smiles,measurement,value
"COC(=O)[C@H](Cc1ccccc1)NC(=O)[C@H](CC(=O)O)NCCC(C)(C)C [neotame, N-[N-(3,3-dimethylbutyl)-L-α-aspartyl]-L-phenylalanine 1-methyl ester]",sweetness potency (sweeter than sucrose),about 8000 ×
